Experiments:
[1] = Solubility limit (Ksp) of GBIG in NaCl brine; type: physicochemical; details: 25° C., 20 minutes of sonication
Method: Solubility limit Ksp at 25° C. and 20 minutes of sonication. Solubility limit strongly depends on salinity: nonlinear dependence.

[2] = GBIG·(HCO3)2(H2O)2(s) precipitation upon contacting with CO2(g); type: physicochemical; details: CO2 gas 0.5 psig, 30 minutes
Method: GBIG·(HCO3)2(H2O)2(s) Precipitation Upon Contacting with CO2(g)
Pour approximately 5 ml of the synthesized chemical solution into the polycarbonate reservoir. Open the CO2 gas cylinder valve and take note of the pressure. Open the delivery valve of the regulator. Increase the delivery pressure to 0.5 psig by turning the regulator knob. Open the 3-way valve connected to the bottom of the polycarbonate reservoir to initiate CO2 gas flow into the reservoir. Watch for precipitation in the liquid through the transparent polycarbonate reservoir wall for 30 minutes. For temperature dependence testing: Samples were placed in ovens at temperature of interest for 30 minutes, then used in the procedure detailed above.
Results for the precipitation test for varying salinity and glyoxal-bis(iminoguanidine) (GBIG) concentration are shown in Tables 2-4 and FIGS. 3A-3C. Table 2 and FIG. 3A show results for 1 wt % NaCl and 0.397 wt % GBIG. Table 3 and FIG. 3B show results for 0.1 wt % NaCl and 0.243 wt % GBIG. Table 4 and FIG. 3C show results for 20 wt % NaCl and 0.064 wt % GBIG.

With `N=C(N)NN=CC=NNC(=N)N` [GBIG, glyoxal-bis(iminoguanidine)] the “GBIG Ksp” value ([1]; 0.1 wt % NaCl) was 0.0143, the “Solubility limit, GBIG (wt %)” value ([1]; 0.1 wt % NaCl) was 0.243 wt % and the “GBIG Ksp” value ([1]; 1 wt % NaCl) was 0.0234. For the same molecule, the “Solubility limit, GBIG (wt %)” value ([1]; 1 wt % NaCl) was 0.397 wt %, the “GBIG Ksp” value ([1]; 20 wt % NaCl) was 0.0038 and the “Solubility limit, GBIG (wt %)” value ([1]; 20 wt % NaCl) was 0.064 wt %. For the same molecule, the “Precipitation?” value ([2]; 0.1 wt % NaCl and 0.243 wt % GBIG, 25° C.) was “Yes”, the “Precipitation?” value ([2]; 0.1 wt % NaCl and 0.243 wt % GBIG, 65° C.) was “Yes” and the “Precipitation?” value ([2]; 0.1 wt % NaCl and 0.243 wt % GBIG, 80° C.) was “Yes”. The “Precipitation?” value ([2]; 0.1 wt % NaCl and 0.243 wt % GBIG, 100° C.) was “Yes”, the “Precipitation?” value ([2]; 0.1 wt % NaCl and 0.243 wt % GBIG, 115° C.) was “Yes” and the “Precipitation?” value ([2]; 1 wt % NaCl and 0.397 wt % GBIG, 25° C.) was “Yes”. For the same molecule, the “Precipitation?” value ([2]; 1 wt % NaCl and 0.397 wt % GBIG, 65° C.) was “Yes”, the “Precipitation?” value ([2]; 1 wt % NaCl and 0.397 wt % GBIG, 80° C.) was “Yes” and the “Precipitation?” value ([2]; 1 wt % NaCl and 0.397 wt % GBIG, 100° C.) was “Yes”. For the same molecule, the “Precipitation?” value ([2]; 1 wt % NaCl and 0.397 wt % GBIG, 115° C.) was “Yes”, the “Precipitation?” value ([2]; 20 wt % NaCl and 0.064 wt % GBIG, 25° C.) was “Yes” and the “Precipitation?” value ([2]; 20 wt % NaCl and 0.064 wt % GBIG, 65° C.) was “Yes”. The “Precipitation?” value ([2]; 20 wt % NaCl and 0.064 wt % GBIG, 80° C.) was “Yes”, the “Precipitation?” value ([2]; 20 wt % NaCl and 0.064 wt % GBIG, 100° C.) was “Yes” and the “Precipitation?” value ([2]; 20 wt % NaCl and 0.064 wt % GBIG, 115° C.) was “Yes”.
